Data from PMC12592502, “Unraveling the mechanisms behind the enhanced efficacy of β-lactam-based sideromycins” (Communications Biology, 2025).
In brackets after ≈: the same amount, converted by molar mass. Read-outs that look alike come from different tables or passages of the source.

How the values were obtained:
[1] = target: PBP2 (Klebsiella pneumoniae, UniProt A6T696); experiment: Membrane PBP binding assay, competition with Bocillin FL; parameters: species or system K. pneumoniae ATCC 13883
Chain of PBP2 (A6T696 entry or part of it): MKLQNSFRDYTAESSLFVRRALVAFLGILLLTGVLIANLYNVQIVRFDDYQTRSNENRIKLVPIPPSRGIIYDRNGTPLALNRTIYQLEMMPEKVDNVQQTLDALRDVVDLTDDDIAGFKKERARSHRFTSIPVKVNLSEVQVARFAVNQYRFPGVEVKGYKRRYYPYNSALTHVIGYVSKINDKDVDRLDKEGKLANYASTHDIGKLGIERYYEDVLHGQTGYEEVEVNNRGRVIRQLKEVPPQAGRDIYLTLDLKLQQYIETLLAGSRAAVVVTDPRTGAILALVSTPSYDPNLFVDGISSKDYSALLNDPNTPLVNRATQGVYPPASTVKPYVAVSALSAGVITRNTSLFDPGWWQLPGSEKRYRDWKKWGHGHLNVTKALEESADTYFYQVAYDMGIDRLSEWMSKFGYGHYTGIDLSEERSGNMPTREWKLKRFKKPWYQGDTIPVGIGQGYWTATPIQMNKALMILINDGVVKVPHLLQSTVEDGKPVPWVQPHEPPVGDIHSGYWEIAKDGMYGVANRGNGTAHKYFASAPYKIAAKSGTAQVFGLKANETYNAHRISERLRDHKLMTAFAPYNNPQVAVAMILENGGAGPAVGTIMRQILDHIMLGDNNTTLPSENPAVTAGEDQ
Method: Membrane extracts containing PBPs were obtained as described above. Briefly, all species were grown in 1 L of TSB until the OD600 reached 0.9. The washed pellet was incubated with lysozyme (400 μg/mL), DNase (10 μg/mL) RNase(10 μg/mL) and anti-protease cocktail (200 mg/20 mL). Lysis was done with a French press (20,000 psi) and membrane protein were pelleted by ultracentrifugation steps (100,000 × g). The pellet was suspended in a minimal volume (300–500 μL) of KP 0.05 M buffer at pH 7. The protein concentration in the membrane preparations was determined with the Micro BCA TM Protein Assay Kit (Thermo Fisher Scientific, Rockford, IL) using bovine serum albumin as a standard.
The PBP binding assay was done as described previously[36],[56],[57]. For each antibiotic concentration tested, a quantity of 25 to 40 μg of membrane preparation was used as the source of PBPs, depending on the species. For the purified PaPBP3, 150 ng was used in the assay. First, increasing concentrations of the test antibiotic was added to the membrane or purified PaPBP3 preparations and incubated for 10 min at 30 °C. The reporter molecule Bocillin FL was then added at 12.5 μM for the membrane PBPs preparations and at 500 nM for the pure PaPBP3 samples for an additional 20 min at 30 °C. All reactions were stopped with the addition of the Laemmli-loading buffer (Bio-Rad) containing fresh β-mercaptoethanol (Sigma). All reactions were then heated at 100°C for 3 min before migration on SDS-polyacrylamide discontinuous gel system (7.5% stacking and 10% separating). Control samples without Bocillin FL were also included to highlight autofluorescent proteins that are not PBPs.
To be able to visualize labeled PBPs after electrophoresis, gels were rinsed in water and fixed in a solution of 50% methanol and 7% acetic acid for 30 min. The fluorescent images of gels were obtained with the Typhoon FLA 9500 instrument (GE-Healthcare Bio-Sciences Inc., Baie-d’Urfé, QC, CA) using a 473 nm excitation wavelength. To obtain quantifiable data, the software Quantity One 1D analysis was used (version 4.6.6; Bio-Rad Laboratories, Richmond, CA). The volume (intensity × constant area) of each PBP was measured. […] All IC50 data were obtained from at least two independent PBP binding assays using two different sets of compound concentrations using a linear regression. The PBP profiles were confirmed, and the PBP numbering were determined using published data and individual molecular weights. […] For example, amdinocillin (Sigma) was used for PBP2 identification. […] The IC50 for PBP 2 of P. aeruginosa was measured by including the SDS-PAGE comigrating autofluorescent protein in the background, as done previously.

[2] = tested on: A. baumannii ATCC 19606; experiment: MIC, broth microdilution (CLSI); assay type: cell-based, Acinetobacter baumannii; details: for MIC in combination with PAβN: + 25 µg/mL PAβN; for MIC ratio 0/1: 0 and 1 µg/mL supplemental iron (Table S2); for MIC ratio 1/0: 1 versus 0 µg/mL supplemental iron (peer review file table)
Method: (§1) All bacterial strains (see description and sources Table S1) were stored at −80 °C, and grown on tryptone soya agar (TSA) at 35 °C. The iron-deprived (ID)-MHBCA (cation-adjusted Muller-Hinton Broth, Becton Dickinson, Mississauga, ON, Canada) medium was prepared as reported by refs. [21],[50]. Briefly, MHBCA was treated with 10% Chelex® 50-100 mesh (Sigma) and stirred for 6 h at room temperature. The resin was removed by filtration. Divalent Ca^2+ (CaCl2), Mg^2+ (MgCl2), and Zn^2+(ZnSO4), were then added in the iron-depleted medium at 22, 12, and 1 μg/ml respectively. Finally, the pH was adjusted to 7.3, and the medium was sterilized with a 0.2-μm filter. Regular MHBCA (i.e., not treated with Chelex®) was used to compare the inhibitory activity of conjugates in iron-sufficient conditions. The resin used for Chelex treatment was always fresh and had never been regenerated, ensuring consistent iron removal.
(§2) Minimal inhibitory concentrations (MICs) were performed using a broth microdilution technique according to the Clinical and Laboratory Standards Institute (CLSI) guidelines. MICs were determined in MHBCA and in ID-MHBCA. To check the impact of β-lactamases, MICs in the presence of a β-lactamase inhibitor were also determined. The inhibitor was homogenized at 2X the final concentration and added to the bacterial inoculum just before distributing cells into the wells containing the drug dilutions. The final concentration of each inhibitor was 4 μg/mL for clavulanic acid (tested against K. pneumoniae) and 200 μg/mL for 3-aminophenylboronic acid (tested against P. aeruginosa and A. baumannii).

[3] = tested on: E. coli ΔcirA; experiment: MIC, Keio mutant; assay type: cell-based, Escherichia coli
Method: as §1, with “conditions.” for “conditions. The resin used for Chelex treatment was always fresh and had never been regenerated, ensuring consistent iron removal.”
as §2

[4] = tested on: E. coli ΔfhuA; experiment: MIC, Keio mutant; assay type: cell-based, Escherichia coli
Method: as §1, with “conditions.” for “conditions. The resin used for Chelex treatment was always fresh and had never been regenerated, ensuring consistent iron removal.”
as §2

[5] = tested on: E. coli Δfiu; experiment: MIC, Keio mutant; assay type: cell-based, Escherichia coli
Method: as §1, with “conditions.” for “conditions. The resin used for Chelex treatment was always fresh and had never been regenerated, ensuring consistent iron removal.”
as §2

[6] = tested on: E. coli ΔacrAB; experiment: MIC, efflux pump mutant; assay type: cell-based, Escherichia coli
Method: as §2

[7] = tested on: P. aeruginosa 1625 ΔmexAB-oprM, ΔmexEF-oprN; experiment: MIC, efflux pump mutant; assay type: cell-based, Pseudomonas aeruginosa
Method: as §2

[8] = tested on: P. aeruginosa 1624 ΔmexCD-oprJ, ΔmexEF-oprN; experiment: MIC, efflux pump mutant; assay type: cell-based, Pseudomonas aeruginosa
Method: as §2

[9] = tested on: P. aeruginosa 1020; experiment: MIC, parent of efflux pump mutants; assay type: cell-based, Pseudomonas aeruginosa
Method: as §2

[10] = K. pneumoniae ATCC 13883 membranes, read-out: IC50 PBP2
[11] = Acinetobacter baumannii, ATCC19606, ID-MHBCA (−), 0 µg/mL supplemental iron, read-out: MIC
[12] = Acinetobacter baumannii, ATCC19606, ID-MHBCA + 1 µg/mL supplemental iron, read-out: MIC
[13] = Acinetobacter baumannii, ATCC19606, ID-MHBCA, + 200 μg/mL APB, read-out: MIC with β-lactamase inhibitor (βI)
[14] = Acinetobacter baumannii, ATCC19606, MHBCA (+), no inhibitor, read-out: MIC
[15] = Acinetobacter baumannii, ATCC19606, MHBCA, + 200 μg/mL APB, read-out: MIC with β-lactamase inhibitor (βI)
[16] = ID-MHBCA (−), 0 µg/mL supplemental iron, read-out: MIC
[17] = MHBCA (+), no inhibitor, read-out: MIC
[18] = Acinetobacter baumannii, ATCC19606, ID-MHBCA + 0.1 µg/mL supplemental iron, read-out: MIC
[19] = Pseudomonas aeruginosa, P. aeruginosa 1020, read-out: MIC

Structure (SMILES)	IC50 [1, 10]	MIC [2, 11]	MIC [2, 12]	MIC [2, 13]	MIC [2, 14]	MIC [2, 15]	MIC [2, 16]	MIC [2, 17]	MIC in combination with PAβN ([2]; MHBCA)	MIC ([3]; Escherichia coli, ID-MHBCA)	MIC ([4]; Escherichia coli, ID-MHBCA)	MIC ([5]; Escherichia coli, ID-MHBCA)	MIC ([6]; Escherichia coli)	MIC ([7]; Pseudomonas aeruginosa)	MIC ([8]; Pseudomonas aeruginosa)	MIC [2, 18]	MIC ratio 0/1 ([2]; ID-MHBCA)	MIC ratio 1/0 ([2]; ID-MHBCA)	MIC ([3]; Escherichia coli, MHBCA)	MIC ([5]; Escherichia coli, MHBCA)	other results
CC1(C)S[C@@H]2[C@H](NC(=O)[C@H](N)c3ccccc3)C(=O)N2[C@H]1C(=O)O [AMP, ampicillin, reference compound]	9.2 ± 1.9 µM	> 200 µM	> 200 µM	> 200 µM	> 200 µM	> 200 µM	>200 µM	>200 µM	> 200 µM	25 µM (≈ 8.74 µg/mL)	25 µM (≈ 8.74 µg/mL)	25 µM (≈ 8.74 µg/mL)	6.3 µM (≈ 2.2 µg/mL)	> 200 µM	> 200 µM						MIC ([9]; Pseudomonas aeruginosa, 1020): > 200 µM
CC1(C)SC2C(NC(=O)C(NC(=O)CN(CCCCNC(=O)c3cccc(O)c3O)C(=O)c3cccc(O)c3O)c3ccccc3)C(=O)N2C1C(=O)O (stereo not drawn) [BAMP, bis-catechol (azotochelin)-ampicillin]	5.1 ± 2.1 µM	0.2 µM (≈ 0.15 µg/mL)	1.6 µM	0.1 µM	0.4 µM (≈ 0.3 µg/mL)	0.2 µM			> 6.3 µM	0.2 to 13 µM (≈ 0.15 to 9.75 µg/mL)	0.1 µM (≈ 0.075 µg/mL)	0.024 µM (≈ 0.018 µg/mL)	0.05 µM (≈ 0.0375 µg/mL)	0.2 µM (≈ 0.15 µg/mL)	0.4 µM (≈ 0.3 µg/mL)	0.4 µM	8	8	13 µM (≈ 9.75 µg/mL)	0.1 to 0.4 µM (≈ 0.075 to 0.3 µg/mL)	MIC ratio unconjugated β-lactam/conjugate ([2]; ID-MHBCA): >1024; MIC ratio unconjugated β-lactam/conjugate ([2]; MHBCA): >512; MIC ([5]; MHBCA): 0.2 µM (≈ 0.15 µg/mL); MIC [9, 19]: 0.4 µM (≈ 0.3 µg/mL)
O=C(CN(CCCCNC(=O)c1cccc(O)c1O)C(=O)c1cccc(O)c1O)NC(C(=O)NC1C(=O)N2C(C(=O)O)=C(Cl)CCC12)c1ccccc1 (stereo not drawn) [BLOR, bis-catechol (azotochelin)-loracarbef]	33.9 ± 5.6 µM	0.024 µM (≈ 0.018 µg/mL)	0.4 µM	0.012 µM	0.05 µM (≈ 0.0375 µg/mL)	0.012 µM			> 6.3 µM	0.2 µM (≈ 0.15 µg/mL)	0.024 µM (≈ 0.018 µg/mL)	0.024 µM (≈ 0.018 µg/mL)	0.012 µM (≈ 0.009 µg/mL)	6.3 µM (≈ 4.73 µg/mL)	6.3 µM (≈ 4.73 µg/mL)	0.1 µM	16	16	13 µM (≈ 9.75 µg/mL)	0.1 to 0.4 µM (≈ 0.075 to 0.3 µg/mL)	MIC ratio unconjugated β-lactam/conjugate ([2]; MHBCA): >4096; MIC ([4]; Escherichia coli, MHBCA): 0.1 to 0.4 µM (≈ 0.075 to 0.3 µg/mL); MIC ([4]; MHBCA): 0.2 µM (≈ 0.15 µg/mL); MIC ([5]; MHBCA): 0.1 µM (≈ 0.075 µg/mL); MIC [9, 19]: 6.3 µM (≈ 4.73 µg/mL)
N[C@@H](C(=O)N[C@@H]1C(=O)N2C(C(=O)O)=C(Cl)CS[C@H]12)c1ccccc1 [CEF, cefaclor, reference compound]		> 200 µM	> 200 µM	> 200 µM	> 200 µM	> 200 µM	>200 µM	>200 µM	> 200 µM	25 µM (≈ 9.2 µg/mL)	13 µM (≈ 4.78 µg/mL)	13 µM (≈ 4.78 µg/mL)	6.3 µM (≈ 2.32 µg/mL)	> 200 µM	> 200 µM				13 µM (≈ 4.78 µg/mL)	13 µM (≈ 4.78 µg/mL)	IC50 [1]: > 50 µM; MIC ([4]; Escherichia coli, MHBCA): 13 µM (≈ 4.78 µg/mL); MIC ([9]; Pseudomonas aeruginosa, 1020): > 200 µM
N[C@@H](C(=O)N[C@@H]1C(=O)N2C(C(=O)O)=C(Cl)CC[C@H]12)c1ccccc1 [LOR, loracarbef, reference compound]	> 50 µM						>200 µM	>200 µM	> 200 µM												MIC ([2]; ID-MHBCA + 1 µg/mL supplemental iron, read-out: MIC): > 200 µM; MIC ([2]; ID-MHBCA, + 200 μg/mL APB, read-out: MIC with β-lactamase inhibitor (βI)): >200 µM; MIC ([2]; MHBCA, + 200 μg/mL APB, read-out: MIC with β-lactamase inhibitor (βI)): >200 µM; MIC ([3]; ID-MHBCA): 13 µM (≈ 4.55 µg/mL); MIC ([3]; MHBCA): 13 µM (≈ 4.55 µg/mL); MIC ([4]; ID-MHBCA): 6.3 µM (≈ 2.2 µg/mL); MIC ([4]; MHBCA): 6.3 µM (≈ 2.2 µg/mL); MIC ([5]; ID-MHBCA): 6.3 µM (≈ 2.2 µg/mL); MIC ([5]; MHBCA): 6.3 µM (≈ 2.2 µg/mL); MIC ([6]; ΔacrAB): 3.1 µM (≈ 1.08 µg/mL); MIC ([7]; P. aeruginosa 1625): > 200 µM; MIC ([8]; P. aeruginosa 1624): > 200 µM; MIC ([9]; P. aeruginosa 1020, read-out: MIC): > 200 µM
O=C(CCC(=O)N(CCCCNC(=O)c1cccc(O)c1O)CCCNC(=O)c1cccc(O)c1O)NCCCCCN(O)C(=O)CCCC(=O)NC(C(=O)NC1C(=O)N2C(C(=O)O)=C(Cl)CSC12)c1ccccc1 (stereo not drawn) [MCEF, mixed ligand bis-catechol-mono-hydroxamate-cefaclor]		0.2 µM (≈ 0.216 µg/mL)	> 6.3 µM	0.012 µM	1.6 µM (≈ 1.73 µg/mL)	0.4 µM			> 6.3 µM	> 200 µM	> 200 µM	> 200 µM	3.1 µM (≈ 3.35 µg/mL)	> 100 µM	> 100 µM	1.6 µM	> 32	> 32	> 200 µM	100 µM (≈ 108 µg/mL)	IC50 ([1]; read-out: IC50 PBP2, K. pneumoniae ATCC 13883 membranes): 16.8 ± 0.3 µM; MIC ratio unconjugated β-lactam/conjugate ([2]; ID-MHBCA): >1024; MIC ratio unconjugated β-lactam/conjugate ([2]; MHBCA): >128; MIC ([3]; MHBCA): >200 µM; MIC ([4]; Escherichia coli, MHBCA): 13 µM (≈ 14.1 µg/mL); MIC [9, 19]: > 100 µM
